Experimental data reported in patent US20070111258A1, “Compositions and methods for modulating the acute phase response” (priority 2005, published 2007).

Test system: CREBH mRNA
Test: CREBH mRNA induction in H2.35 cells (Northern blot, quantitative real-time RT-PCR)
Format: cell-based
Conditions: murine H2.35 hepatoma cells; IL6 40 ng/ml, TNFα 20 ng/ml, IL1β 40 ng/ml, DTT 5 mM, Tg 0.5 μM, Tm 5 μg/ml, BFA 0.5 μg/ml; 4, 8, 12 hours
Method: FIG. 1 depicts the induction of expression of CREBH during fetal liver development and by proinflammatory cytokines. (A) Structural comparison of CREBH and ATF6. The domains are indicated by residue numbers of amino acids. (B) Northern blot analysis of CREBH mRNA levels in various tissues from mice. Tissue samples were collected from 3-month-old wild-type C57BL/6J mice. Levels of β-actin mRNA were determined for control of sample loading. (C) Expression profile of CREBH mRNA in fetal livers during embryogenesis. (D) Induction of CREBH mRNA in murine hepatoma cell line H2.35 under IL6 (40 ng/ml) stimulation for various time points. For panels A-D, experiments were performed at least 3 times and representative data are shown.
FIG. 2 depicts the analysis of gene expression in H2.35 cells. H2.35 cells were treated with 20 ng/ml TNFα, 40 ng/ml IL1β, 20 μg.ml LPS, 5 mM DTT, 0.5 μM Tg, 5 μg/ml Tm or 0.5 μg/ml BFA for 4, 8 and 12 hours, respectively. Levels of CREBH mRNA (A) and spliced XBP1 mRNA (B) in H2.35 were determined by quantitative real-time RT-PCR. Fold changes of mRNA induction were determined after normalization of the mRNA levels to internal control 18S ribosomal RNA levels. […] However, expression from the SAP or CRP promoter-reporter plasmids is sufficiently measurable in H2.35 cells so that it is possible to investigate transcriptional activation effects of CREBH on the CRP and SAP promoters by reporter assays in H2.35 cells. These reporter experiments are not possible in non-hepatocyte cell lines. However, for non-hepatocyte cell lines, such as wild-type and mutant CHO cells, CREBH cleavage and activation could be measured using the UPRE reporter assay. (C) Summary of stimuli that induce CREBH mRNA, NF-κB activation and the UPR in H2.35 and HepG2 cells. (D) Expression of BiP and GRP94 in H2.35 cells over-expressing CREBH or ATF6. H2.35 cells in a 35 mm collagen-coated plate were transfected with 1.5 μg empty DNA vector, vector expressing the nuclear form of CREBH (CREBH-N) or vector expressing nuclear form of ATF6 (ATF6 p50), respectively. Expression levels of BiP and GRP 94 were determined by Western blot analysis by using a murine and —BiP monoclonal antibody and a murine anti-GRP94 monoclonal antibody, respectively. The membranes were re-blotted with an anti-α-actin antibody for control of sample loading.
Northern blot analysis was performed according to standard procedures (Sambrook et al., 1989). ^32P-labeled probes were prepared using a random prime labeling system (Amersham Pharmacia, Piscataway, N.J., USA). A 210 bp mouse CREBH cDNA fragment, a 250 bp mouse CRP cDNA fragment and a 260 bp mouse SAP cDNA fragment were amplified from murine total RNA by reverse transcription-PCR system (Roche Applied Science), respectively, and were used as probes for Northern blot analyses. Total RNA (15 μg) per sample purified from cultured cells or murine tissues was used for Northern blot analysis. Quantitative real-time RT-PCR was performed as previously described (Back et al., 2005). Briefly, total cellular RNA prepared was reverse-transcribed to cDNA using a random primer (Applied Biosystems). The reaction mixture, containing SYBR Green PCR Master Mix (Applied Biosystems), was run in a 7900HT Fast Real-Time PCR System (Applied Biosystems). Real-time PCR primer sequences for quantification of murine XBP1 mRNA splicing are: the forward primer 5′-[…]-3′, and the reverse primer 5′-[…]-3′. Other primer sequences were designed by Primer Express (Applied Biosystems).

tunicamycin [Tm]
induction of CREBH mRNA: minor effect
